# Measurements taken from US10034827B2, “Skin care product and method of use” (The Procter & Gamble Company, priority 2014, dated 2018).
# Residues, ends and D or L forms follow the SMILES beside them. *: point of attachment. Palmitoyl = CCCCCCCCCCCCCCCC(=O)*
# Experiments:
# [1] = Diamagnetic susceptibility; assay type: physicochemical; conditions: dimensionless
# [2] = Ex vivo skin penetration study (Franz cell, magnetic arrays moved above epidermis); assay type: in vitro ADME, human; conditions: arrays 1 (uni-directional, 27 mT) and 2 (bi-directional, overall 21 mT) of Table 1; 400 μg/ml in 50:50 PG:PB pH 4
# Protocol: An ex vivo skin penetration study was conducted to compare the ability of different magnetic arrays to enhance penetration of Pal-KTTKS (SEQ ID NO: 1) into the epidermis of human skin. The dermis and epidermis of human skin samples obtained from donors aged 60-65 years were heat separated and the dermis discarded. 20 μL of a Pal-KTTKS (SEQ ID NO: 1) containing composition (400 μg/ml in 50:50 PG:PB at pH 4) was placed on human epidermis in Franz cell. Different magnetic arrays were positioned approximately 1.0 mm above the epidermis samples and moved over the samples at the speed a user might move a cosmetic applicator when applying a skin care product (e.g., about 20-25 cm/sec). Samples were taken and measured at 0, 1, 2, 4, 6, 8, 24 hours. […] For the bi-directional arrays herein, the “1st layer” refers to the layer closest to the skin-contacting surface of the applicator, and the “2nd layer” refers to the layer disposed on the side of the 1st layer opposite the side closest to the skin-contacting surface.
# [3] = In vivo skin penetration study #2, Tape Stripping method (magnetic vs non-magnetic applicator); set-up: species or system human
# Protocol: (§1) This method provides a suitable means of measuring the amount of skin care active present in skin, and comparing active versus passive application of the skin care active. Two identical rectangular areas of 15 cm^2 are marked on the volar forearms of volunteers. A measured dose (approximately 30 mg) of the Pal-KTTKS (SEQ ID NO: 1) formulation is applied to the delineated areas using a screw actuated syringe. Active application is carried out on one of the delineated areas using the three-quarter profile of a purpose made applicator (e.g., an applicator presenting one of the magnetic arrays set forth in Table 2). Passive application is accomplished on the other delineated area using the tip of a finger in a sweeping motion identical to that of the active application. The formulation is spread evenly across the entire delineated region using a sweeping motion with a fixed speed of approximately 23 cm/s to […]. The application period is 30 seconds during which time visual inspection is used to ensure even distribution and absorption of the formulation by skin. The application area is then left uncovered for a further 30 minutes to ensure complete absorption. Tape strip samples may be collected and/or analyzed immediately after the complete absorption is ensured or after a waiting period (e.g., after multiple applications of the formulation over multiple hours or days).
# (§2) The tape stripping procedure is carried out using 10 commercial pre-cut 22.1 mm tape stripping adhesive discs (e.g., D-SQUAME brand tape strips, available from Cuderm Corporation, or equivalent) with an adhesive area of 3.8 cm^2. The 10 tape strips are applied sequentially to the same sampling site, which ideally enables each tape strip to obtain a sample from deeper within the stratum corneum than the tape strip that preceded it. A 22.1 mm diameter circular region is marked at the center of the application area. A tape stripping adhesive disc is placed over the marked area and even pressure applied using, for example, a neoprene roller, rolled ten times over the adhesive disc. The adhesive disc is removed from the skin surface in a single pulling motion using manual tweezers. To ensure even removal of the skin sample, subsequent discs are removed in a “north, south, east and west” orientation, which is within the skill of the ordinary artisan. Each adhesive disc is non-destructively analyzed for protein content using a suitable instrument (e.g., SquameScan™ 850 instrument commercially available from Heiland Electronics Wetzlar, Germany, or equivalent). The adhesive disc is then immediately placed into a glass vial containing extraction solvent in preparation for subsequent analysis. Solvent extractions are conducted on each tape strip using conventional extraction methods, which are well known to those of ordinary skill in the art, and measuring the amount of Pal-KTTKS (SEQ ID NO: 1) present in the extract, for example, by high performance liquid chromatography (“HPLC”) and/or mass spectrometry.
# The procedure is repeated for the remaining nine strips. An additional strip is obtained from outside the area of application of the skin care formulation to serve as a blank sample. The amount of active is normalized to the amount of protein measured. […]
# [4] = In vivo skin penetration study #1, Tape Stripping method (active magnetic array vs passive finger application); set-up: species or system human
# Protocol: An in vivo skin penetration study was conducted to establish the effect of using a skin care product of the present invention by applying a skin care composition comprising Pal-KTTKS (SEQ ID NO: 1) with an applicator comprising a magnetic array. The study compared the penetration of the Pal-KTTKS (SEQ ID NO: 1) in combination with a variety of magnetic arrays (active application) to the penetration of Pal-KTTKS (SEQ ID NO: 1) applied with a finger (passive application). Penetration of Pal-KTTKS (SEQ ID NO: 1) in this example is determined according to the Tape Stripping method. In this example, the level of Pal-KTTKS (SEQ ID NO: 1) present in the extract from each tape strip was measured using HPLC and the results normalized to the protein level measured on the tape strip.
# as §1, §2
# The procedure is repeated for the remaining nine strips. An additional strip is obtained from outside the area of application of the skin care formulation to serve as a blank sample. […]
# [5] = magnetic applicator with array #8, average across all 10 test sites, in ng (unit assumed)
# [6] = non-magnetic applicator, average across all 10 test sites, in ng (unit assumed)
smiles,measurement,setting,value
"CCCCCCCCCCCCCCCC(=O)N[C@@H](CCCCN)C(=O)N[C@H](C(=O)N[C@H](C(=O)N[C@@H](CCCCN)C(=O)N[C@@H](CO)C(=O)O)[C@@H](C)O)[C@@H](C)O [Pal-KTTKS, palmitoyl-lysine-threonine-threonine-lysine-serine] (Palmitoyl-KTTKS-OH; C-terminus assumed)",diamagnetic susceptibility,[1],approximately −519
same,penetration enhancement of Pal-KTTKS into human epidermis,[2],demonstrated the best penetration enhancement
same,"Enhancement value Strips 2-10 (active/passive), Avg","[3]; array #8 vs non-magnetic applicator, average of the enhancement values of all test sites",4
same,"Sum 2-10 of Pal-KTTKS recovered, active application, Avg",[3]; [5],42.02
same,"Sum 6-10 of Pal-KTTKS recovered, active application, Avg",[3]; [5],22.74
same,"Sum 2-10 of Pal-KTTKS recovered, passive application, Avg",[3]; [6],20.55
same,"Sum 6-10 of Pal-KTTKS recovered, passive application, Avg",[3]; [6],10.01
same,Enhancement (active/passive),"[4]; array #4, tape strips 2-4, from average values of Table 11",1.54
same,Enhancement (active/passive),"[4]; array #4, tape strips 5-7, from average values of Table 11",2.18
same,Enhancement (active/passive),"[4]; array #4, tape strips 8-10, from average values of Table 11",2.98
same,Enhancement (active/passive),"[4]; array #9, tape strips 2-4, from average values of Table 9",4.19
same,Enhancement (active/passive),"[4]; array #9, tape strips 5-7, from average values of Table 9",2.38
same,Enhancement (active/passive),"[4]; array #9, tape strips 8-10, from average values of Table 9",3.78
same,penetration enhancement compared with other magnetic arrays,[4]; magnetic array #4 (uni-directional),better penetration enhancement than some of the other magnetic arrays tested
same,penetration enhancement compared with other magnetic arrays,[4]; magnetic array #9 (bi-directional),better penetration enhancement than some of the other magnetic arrays tested
